The values below are quoted from earlier work in US6613244B2, “Ironing aid composition” (Unilever Home & Personal Care USA, division of Conopco, Inc., priority 2000, dated 2003).

The conditions of this data set: stated in words, related to ClogP.

With `CC(=O)OC(c1ccccc1)C(Cl)(Cl)Cl` (stereo not shown) [rose acetate], the solubility in water result is recorded as “not easily soluble in water”.
